This passage reports emission maximum results from the Deep4Chem optical property database.

The nature of the first data set: solvent given as SMILES. The settings on record: in CN(C)C=O.
Compound `CCC1(CC)c2ccccc2-c2ccc(C#Cc3ccc4ccc5cccc6ccc3c4c56)cc21` gave an emission maximum of 412 nm.
Still for that read-out and setting: as for `CCC1=C(C)C2=C(c3ccc(-c4c5ccccc5c(-c5ccccc5)c5ccccc45)cc3)c3c(C)c(CC)c(C)n3[B-](F)(F)[N+]2=C1C`, the figure is 537 nm; as for `COc1ccc(-c2csc(/C(C#N)=C/c3ccc(C#N)cc3)n2)cc1`, 570 nm.
Regarding `CC(C)(C)c1ccc(-c2cc3c4c(c2)CCc2cc(-c5ccc(C(C)(C)C)cc5)cc(c2-4)CC3)cc1`, the emission maximum stood at 386.79 nm.
Still for that read-out and setting: as for `CCCCCCN(c1ccccc1)c1ccc2c(c1)C(CC)(CC)c1cc(/C=C/c3ccc(/C=C(\C#N)C(=O)O)s3)ccc1-2`, the figure is 605 nm.

The data set is the same for the next values; noted with them: in CO.
`N#Cc1ccc(/C=C2\OC(=O)c3cc(N)ccc32)cc1` returned an emission maximum of 503.52 nm.
On the same count and under the same terms, as for `O=S(=O)([O-])CCCCN1C=C/C(=C/C=C/C=C/c2cc[n+](CCCCS(=O)(=O)[O-])c3ccccc23)c2ccccc21`, the figure is 830 nm; as for `Cc1ccc(C2=[N+]3C(=Cc4ccc(C)n4[B-]3(F)F)c3ccccc32)[nH]1`, 616 nm.
Still for that read-out and setting: as for `CC(C)(C)c1ccc(-c2cc3c4c(c2)CCc2cc(-c5ccc(C(C)(C)C)cc5)cc(c2-4)CC3)cc1`, the figure is 381.87 nm; as for `c1ccc(C2CSC(c3c4ccc(=[N+]5CCCCC5)cc-4oc4cc(N5CCCCC5)ccc34)SC2)cc1` (stereo unspecified), 606.35 nm.

Staying with this data set, now noted: in CS(C)=O.
`C(=C\c1ncnc2ccccc12)/c1ccc(N2CCCCC2)cc1`: the emission maximum was 589 nm.
The same measure, in the same setting: as for `CCCCCCN(c1ccccc1)c1ccc2c(c1)C(CC)(CC)c1cc(/C=C/c3ccc(/C=C(\C#N)C(=O)O)s3)ccc1-2`, the figure is 627 nm.

Still in this data set, the particulars now being: in Cc1ccccc1.
In turn, `CCC1(CC)c2ccccc2-c2ccc(C#Cc3ccc4ccc5cccc6ccc3c4c56)cc21` showed an emission maximum of 412 nm.
Still for that read-out and setting: the same measure for `Fc1c(-n2c3ccccc3c3ccccc32)c(F)c(-n2c3ccccc3c3ccccc32)c(-c2nnc(-c3ccccc3)o2)c1-n1c2ccccc2c2ccccc21`: 490 nm.
Still for that read-out and setting: the same measure for `F[B-]1(F)n2c(Nc3cccc4cccnc34)ccc2C(c2ccccc2)=C2C=CC(Cl)=[N+]21`: 586 nm; for `CCCCN1C(=S)c2cccc3cccc(c23)C1=S`: 506 nm.
Still for that read-out and setting: as for `CCC1=C(C)C2=C(c3ccc(-c4c5ccccc5c(-c5ccccc5)c5ccccc45)cc3)c3c(C)c(CC)c(C)n3[B-](F)(F)[N+]2=C1C`, the figure is 539 nm; as for `COc1ccc(-c2csc(/C(C#N)=C/c3ccc(C#N)cc3)n2)cc1`, 519 nm.
Regarding `CC(C)(C)c1cc2c(c(C(C)(C)C)c1)O[B-](F)(F)[n+]1c-2nc(-c2ccccc2)c2cc(Cl)ccc21`, the emission maximum came out at 552 nm.
The same measure, in the same setting: as for `c1ccc(-c2nc(-c3ccccc3)nc(-n3c4ccccc4c4cccc(-n5c6ccccc6c6ccccc65)c43)n2)cc1`, the figure is 459.26 nm; as for `Cc1ccc(C2=[N+]3C(=Cc4ccc(C)n4[B-]3(F)F)c3ccccc32)[nH]1`, 623 nm.
The same measure, in the same setting: the same measure for `Cc1cc(C)c(B(c2ccc(C#Cc3cc4ccc5cc(C#Cc6ccc(B(c7c(C)cc(C)cc7C)c7c(C)cc(C)cc7C)cc6)cc6ccc(c3)c4c56)cc2)c2c(C)cc(C)cc2C)c(C)c1`: 426 nm; for `COc1ccc2c(c1)c1ccccc1n2-c1nc2ccccc2nc1-n1c2ccccc2c2cc(OC)ccc21`: 560 nm.

The data set is the same for the next values; noted with them: in ClC(Cl)Cl.
In turn, `CCC1(CC)c2ccccc2-c2ccc(C#Cc3ccc4ccc5cccc6ccc3c4c56)cc21` yielded an emission maximum of 413 nm.
Still for that read-out and setting: the same measure for `F[B-]1(F)n2c(Nc3cccc4cccnc34)ccc2C(c2ccccc2)=C2C=CC(Cl)=[N+]21`: 583 nm; for `CCCCCCCCCCOc1cc(OCCCCCCCCCC)cc(C2=C3C(C)=CC(/C=C/c4ccc(OC)cc4)=[N+]3[B-](F)(F)n3c(/C=C/c4ccc(OC)cc4)cc(C=Cc4ccc(OC)cc4)c32)c1`: 682 nm.
The same measure, in the same setting: the same measure for `c1ccc2c3c(ccc2c1)C1(c2cc(-c4ccc5ccc6cccc7ccc4c5c67)ccc2-c2ccc(-c4ccc5ccc6cccc7ccc4c5c67)cc21)c1ccc2ccccc2c1O3`: 422 nm.
As for `c1ccc(-n2c(-c3ccc(-c4ccc5c(c4)C4(c6ccccc6-c6ccccc64)c4cc(-c6ccc(-c7nc8ccccc8n7-c7ccccc7)cc6)c6ccccc6c4-5)cc3)nc3ccccc32)cc1`, the emission maximum is reported as 440 nm.
On the same count and under the same terms, as for `CC1=CC(/C=C/c2ccc(N(C)C)cc2)=[N+]2C1=C(c1ccccc1)c1c(C)cc(/C=C/c3ccc(N(C)C)cc3)n1[B-]2(F)F`, the figure is 753 nm.
`CCCCN1c2ccc(/C=C/c3cc(=O)oc4cc(C)ccc34)cc2Sc2cc(/C=C/c3cc(=O)oc4cc(C)ccc34)ccc21` gave an emission maximum of 620 nm.
Still for that read-out and setting: as for `Cc1ccc2nc3c4c(c5ccccc5c3nc2c1)OC(=O)CC4c1ccc(F)cc1` (stereo unspecified), the figure is 431 nm; as for `CC(C)(C)c1ccc(-c2cc3c4c(c2)CCc2cc(-c5ccc(C(C)(C)C)cc5)cc(c2-4)CC3)cc1`, 387.93 nm.

Still in this data set, the particulars now being: in ClCCl.
`CCC1(CC)c2ccccc2-c2ccc(C#Cc3ccc4ccc5cccc6ccc3c4c56)cc21` registered an emission maximum of 412 nm.
Same read-out and setting: as for `Cc1cc(C)c(B2c3cc(C)ccc3N3c4ccc(C)cc4B(c4c(C)cc(C)cc4C)c4cc(C)cc2c43)c(C)c1`, the figure is 484 nm.
In the case of `c1ccc(N(c2ccccc2)c2ccc(-c3ccc4c(c3)C3(c5cc(-c6ccc(N(c7ccccc7)c7ccccc7)cc6)ccc5-4)c4ccccc4N(c4ccccc4)c4ccccc43)cc2)cc1`, the emission maximum is 451 nm.
On the same count and under the same terms, as for `c1ccc2c(-c3c4ccccc4c(-c4ccc(-n5c6ccccc6c6ccccc65)cc4)c4ccccc34)cccc2c1`, the figure is 421 nm; as for `COc1ccc2cc(C#N)c(=N)oc2c1`, 387 nm.
For the compound `CCC1=C(C)C2=C(c3ccc(-c4c5ccccc5c(-c5ccccc5)c5ccccc45)cc3)c3c(C)c(CC)c(C)n3[B-](F)(F)[N+]2=C1C`, the emission maximum is 540 nm.
For the compound `CN(C)c1cc(-c2ccc(C#Cc3ccncc3)cc2)cc2ccccc12`, the emission maximum came out at 536 nm.
Same read-out and setting: as for `CC(C)(C)c1ccc(-c2cc(-c3ccc(-c4cc(-c5ccc(C(C)(C)C)cc5)c(C(=O)NC5CCCCC5)s4)s3)sc2C(=O)NC2CCCCC2)cc1`, the figure is 448 nm; as for `COc1ccc(-c2csc(/C(C#N)=C/c3ccc(C#N)cc3)n2)cc1`, 554 nm; as for `C(=C\c1ncnc2ccccc12)/c1ccc(N2CCCCC2)cc1`, 558 nm.
`C[Si](C)(c1ccc(-c2nc3ccccc3n2-c2ccccc2)cc1)c1ccc(-c2nc3ccccc3n2-c2ccccc2)cc1`: the emission maximum was 359 nm.
Same read-out and setting: the same measure for `Cc1ccc(C2=[N+]3C(=Cc4ccc(C)n4[B-]3(F)F)c3ccccc32)[nH]1`: 624 nm; for `CCN(CC)c1ccc2cc(C#N)/c(=N\C(=O)c3ccc(C)cc3)oc2c1`: 502 nm.
The same measure, in the same setting: as for `CC(C)(C)c1ccc(-c2cc3c4c(c2)CCc2cc(-c5ccc(C(C)(C)C)cc5)cc(c2-4)CC3)cc1`, the figure is 386.36 nm.
Compound `C[Si]1(C)c2cc(C#Cc3ccccc3)ccc2C=Cc2ccc(C#Cc3ccccc3)cc21` returned an emission maximum of 407 nm.
Still for that read-out and setting: the same measure for `CCCCN(CCCC)c1ccc(C#Cc2cc(C#Cc3ccc(N(CCCC)CCCC)cc3)c(C#Cc3ccc(C#N)cc3)cc2C#Cc2ccc(C#N)cc2)cc1`: 557 nm.
The compound `CCCCCCN(c1ccccc1)c1ccc2c(c1)C(CC)(CC)c1cc(/C=C/c3ccc(/C=C(\C#N)C(=O)O)s3)ccc1-2` showed an emission maximum of 594 nm.

The same data set, now with this note: in O.
The compound `C#CCOc1ccc(/C=C/C2=[N+]3C(=C(c4ccc(N(CC)CC)cc4)c4c(C)cc(/C=C/c5ccc(S(=O)(=O)O)cc5S(=O)(=O)O)n4[B-]3(F)F)C(C)=C2)cc1` yielded an emission maximum of 660 nm.
The same measure, in the same setting: as for `CC[N+]1(CC)CN2C(=N1)C(C(=O)O)=Cc1cc(OC)c(OC)cc12`, the figure is 472 nm.

The data set is the same for the next values; noted with them: in OCC(O)CO.
For the compound `CCN(CC)c1ccc2c(C(F)(F)F)cc(=O)oc2c1`, the emission maximum is 524 nm.

Still in this data set, the particulars now being: in OCCOCCO.
In the case of `OC1(c2ccc(-c3cccs3)s2)CCC1`, the emission maximum is given as 465 nm.

Staying with this data set, now noted: in c1cc(-n2c3ccccc3c3ccccc32)cc(-n2c3ccccc3c3ccccc32)c1.
Consider `c1ccc(N(c2ccccc2)c2ccc(-c3ccc4c(c3)C3(c5cc(-c6ccc(N(c7ccccc7)c7ccccc7)cc6)ccc5-4)c4ccccc4N(c4ccccc4)c4ccccc43)cc2)cc1`, for which the emission maximum was found to be 432 nm.

Still in this data set, the particulars now being: in c1ccccc1.
`CCCCN(CCCC)c1ccc(C#Cc2cc(C#Cc3ccc(N(CCCC)CCCC)cc3)c(C#Cc3ccc(C#N)cc3)cc2C#Cc2ccc(C#N)cc2)cc1` returned an emission maximum of 512 nm.

Staying with this data set, now noted: in c1ccncc1.
On to `OC1(c2ccc(-c3cccs3)s2)CCC1`, for which the emission maximum was 468 nm.
